# Results from patent publication US20220146526A1, “METHOD FOR EVALUATING SAMPLE, ANALYSIS METHOD, METHOD FOR DETECTING DEGRADED SAMPLE, MARKER FOR DETECTING DEGRADED BLOOD PLASMA SAMPLE, AND MARKER FOR DETECTING DEGRADED SERUM SAMPLE” (SHIMADZU CORPORATION, priority 2019, published 2022).
# Key:
# Format in all cases: physicochemical, human
# [1] = LC/MS of blood plasma sample: time from blood collection to centrifugation (Table D); details: for Rate of increase or decrease: detection intensity relative to 1 at 15 minutes; for Rate of increase or decrease / Increase or decrease: blood collection to centrifugation; for Increase or decrease: detection intensity; for Rate of increase or decrease (second value, decrease) / Rate of increase or decrease (first value, increase): different from individual to individual, relative to 1 at 15 minutes, collection to centrifugation; for Rate of increase or decrease (second value, decrease): individuals with decrease; for Rate of increase or decrease (first value, increase): individuals with increase
# Protocol: (§1) At room temperature, 5 mL of blood from a healthy subject was taken into a blood-collecting vessel containing EDTA, and the blood-collecting vessel was inverted for mixing, then cooled, and allowed to stand at 4° C. Here, in order to investigate how the detection intensity of molecules contained in the sample was affected in a case where the time to cooling was set to 5 minutes or more as compared to that in a case where the time to cooling was set to 1 minute or less, preparations were performed under both the former condition and the latter condition. After standing, the blood sample was subjected to centrifugation under a condition of 4° C., 3000 rpm, and 15 minutes. […] After centrifugation, the blood-collecting vessel was left to stand at room temperature for 30 minutes, and the blood plasma was isolated during this 30 minutes. The obtained blood plasma sample was frozen and stored. Here, in order to investigate how the detection intensity of molecules contained in the sample was affected in cases where freezing and thawing was performed 4 times, 6 times, and 10 times after freezing as compared to that in a case where freezing and thawing was performed 2 times after freezing, freezing and thawing was performed under the respective conditions of 2, 4, 6, and 10 times.
# (§2) Frozen blood plasma samples and serum samples were subjected to GC/MS or LC/MS. In GC/MS, the blood plasma samples and serum samples were subjected to methoxymation and trimethylsilylation and then introduced to GC-MS.
# (§3) Analysis column: Discovery HS F5-3 (inner diameter of 2.1 mm, length of 150 mm, film thickness of 3 μm) (Sigma-Aldrich)
# (§4) Column temperature: 40° C.
# (§5) (A) 0.1% formic acid (dissolved in water)
# (§6) (B) 0.1% formic acid (dissolved in acetonitrile)
# (§7) Flow velocity: 0.25 mL/min
# (§8) Ionization method: electrospray
# (§9) Temperature: • Desolvation Line (DL) temperature: 250° C. • Heat block temperature: 400° C. • Interface temperature: 300° C.
# (§10) Gas flow rate: • Nebulizer gas flow rate: 3.0 L/min • Drying gas flow rate: 10.0 L/min • Heating gas flow rate: 10.0 L/min
# (§11) Mode: multiple reaction monitoring (MRM)
# The rate of increase or decrease in Table D is the value of detection intensity relative to 1 that is the detection intensity in a case where the time from blood collection to centrifugation is set to 15 minutes.
# [2] = LC/MS of blood plasma sample: number of times of freezing and thawing (Table F); details: for Rate of increase or decrease: detection intensity relative to 1 at 2 times; for Increase or decrease: detection intensity
# Protocol: as §1, §2, §3, §4, §5, §6, §7, §8, §9, §10, §11
# The rate of increase or decrease in Table F is the value of detection intensity relative to 1 that is the detection intensity in a case where the number of times of freezing and thawing is set to 2 times.
# [3] = LC/MS of serum sample: number of times of freezing and thawing (Table M); parameters: key to Rate of increase or decrease: detection intensity relative to 1 at 2 freeze-thaw cycles; details: for Number of times when compound is affected / Increase or decrease: serum sample, LC/MS; for Number of times when compound is affected: detection intensity changed by 30% or more vs 2 times of freezing and thawing; for Increase or decrease: detection intensity vs 2 times of freezing and thawing
# In short: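 Serum was isolated at room temperature after centrifugation at room temperature, 3500 rpm, 5 minutes, then frozen and freeze-thawed 2, 4, 6 or 10 times. LC/MS used a Discovery HS F5-3 column at 40° C with formic acid water/acetonitrile, electrospray MRM. Intensity is relative to 2 freeze-thaw cycles.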
# [4] = GC/MS of serum sample: time from blood collection to centrifugation (Table G); details: blood collection to centrifugation
# In short: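 Blood was held for varying times before centrifugation (room temperature, 3500 rpm, 5 min); serum was frozen, then methoxymated and trimethylsilylated for GC/MS with electron ionization in MRM mode. Values are detection intensities relative to the 15-minute collection-to-centrifugation condition, set as 1.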
# [5] = GC/MS of serum sample: time from centrifugation to isolation (Table H); parameters: key to Rate of increase or decrease / Rate of increase or decrease (first value, increase): detection intensity relative to 1 at 30 min centrifugation-to-isolation
# In short: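 Blood was centrifuged at room temperature, 3500 rpm, 5 min, and the vessel left at room temperature for 30 min, 1 h or 6 h before serum isolation. Serum was methoxymated, trimethylsilylated and analysed by GC/MS with electron ionization in MRM mode; intensities expressed relative to the 30-min condition (=1).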
# [6] = GC/MS of serum sample: number of times of freezing and thawing (Table I); parameters: key to Rate of increase or decrease / Rate of increase or decrease (first value, increase): detection intensity relative to 2 freeze-thaw cycles = 1; details: serum, GC/MS
# In short: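 Serum was isolated after centrifugation at room temperature (3500 rpm, 5 min), frozen, and put through 2, 4, 6 or 10 freeze–thaw cycles. Samples were methoxymated and trimethylsilylated, then run by electron-ionization GC/MS in MRM mode on a BPX5 column (60 to 330 °C). Detection intensity is given relative to the 2-cycle sample, set as 1.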
# [7] = LC/MS of serum sample: time from blood collection to centrifugation (Table J); details: for Rate of increase or decrease: detection intensity relative to 1 at 15 minutes; for Increase or decrease / Time when compound is affected: serum sample, LC/MS; for Increase or decrease: detection intensity vs 15 minutes from blood collection to centrifugation; for Time when compound is affected: time from blood collection to centrifugation, detection intensity changed by 30% or more vs 15 minutes
# Protocol: After standing, the blood sample was subjected to centrifugation under a condition of room temperature, 3500 rpm, and 5 minutes. […] After centrifugation, the blood-collecting vessel was left to stand at room temperature, and the serum was isolated during this time. Here, in order to investigate how the detection intensity of molecules contained in the sample was affected in cases where the time during which the blood-collecting vessel was left at room temperature was set to 1 hour and 6 hours as compared to that in a case where the time was set to 30 minutes, preparations were performed under the respective conditions of 30 minutes, 1 hour, and 6 hours. The obtained serum sample was frozen and stored. Here, in order to investigate how the detection intensity of molecules contained in the sample was affected in cases where freezing and thawing was performed 4 times, 6 times, and 10 times after freezing as compared to that in a case where freezing and thawing was performed 2 times after freezing, freezing and thawing was performed under the respective conditions of 2, 4, 6, and 10 times.
# as §2, §3, §4, §5, §6, §7, §8, §9, §10, §11
# The rate of increase or decrease in Table J is the value of detection intensity relative to 1 that is the detection intensity in a case where the time from blood collection to centrifugation is set to 15 minutes.
# [8] = freezing and thawing 10 times vs 2 times
# [9] = 6 times of freezing and thawing, detection intensity relative to 1 at 2 times
# [10] = freezing and thawing 4 times vs 2 times
# [11] = 4 times of freezing and thawing, detection intensity relative to 1 at 2 times
# [12] = after 12 hours from blood collection to centrifugation
# [13] = freezing and thawing 6 times vs 2 times
Compound,Increase or decrease ([1]; after 12 hours vs 15 minutes),Rate of increase or decrease ([2]; freezing and thawing 10 times),"Increase or decrease [2, 8]","Rate of increase or decrease [3, 9]",Number of times when compound is affected [3],Increase or decrease [3],"Rate of increase or decrease (second value, decrease) ([1]; after 12 hours)","Rate of increase or decrease (first value, increase) ([1]; after 12 hours)",Increase or decrease [7],Time when compound is affected [7],also measured
NC(=O)NCCC[C@H](N)C(=O)O [Citrulline],Decrease,1.33,Increase,0.62,6 times,Decrease,,,,,Rate of increase or decrease ([1]; after 12 hours): 0.68
O=C(O)[C@@H]1CC(O)CN1 (some centres unmarked) [4-Hydroxyproline],Different from individual,1.34,Increase,0.66,6 times,Decrease,0.69,1.33,,,"Rate of increase or decrease ([4]; detection intensity relative to 1 at 15 minutes, after 12 hours): 1.44; Increase or decrease ([4]; detection intensity, after 12 hours vs 15 minutes): Increase; Rate of increase or decrease ([5]; detection intensity relative to 1 at 30 minutes, after 1 hour): 1.33; Increase or decrease ([5]; detection intensity, after 1 hour vs 30 minutes): Increase; Rate of increase or decrease ([6]; detection intensity relative to 1 at 2 times, freezing and thawing 4 times): 1.40; Increase or decrease ([6]; detection intensity, freezing and thawing 4 times vs 2 times): Increase"
N[C@@H](CCC(=O)O)C(=O)O [Glutamic acid],,5.21,Increase,,10 times,Decrease,,,Increase,After 4 hours,"Rate of increase or decrease ([7]; after 4 hours from blood collection to centrifugation): 3.09; Rate of increase or decrease ([3]; 10 times of freezing and thawing, detection intensity relative to 1 at 2 times): 0.63"
O=C(O)CCC(=O)O [Succinic acid],,,,,4 times,Increase,,,Increase,After 6 hours,"Rate of increase or decrease ([1]; after 4 hours): 0.50; Rate of increase or decrease ([1]; after 6 hours): 0.61; Increase or decrease ([1]; after 4 hours vs 15 minutes): Decrease; Increase or decrease ([1]; after 6 hours vs 15 minutes): Decrease; Rate of increase or decrease ([2]; freezing and thawing 4 times): 1.46; Increase or decrease [2, 10]: Increase; Rate of increase or decrease ([7]; after 6 hours from blood collection to centrifugation): 1.57; Rate of increase or decrease [3, 11]: 1.47"
N[C@@H](Cc1c[nH]cn1)C(=O)O [Histidine],,1.36,Increase,0.61,6 times,Decrease,,,Increase,After 12 hours,"Rate of increase or decrease [7, 12]: 1.46"
CN(CC(=O)O)C(=N)N [Creatine],Different from individual,,,,4 times,Decrease,0.66,1.67,,,"Rate of increase or decrease ([2]; freezing and thawing 4 times): 1.39; Increase or decrease [2, 10]: Increase; Rate of increase or decrease [3, 11]: 0.63"
NCC(=O)O [Glycine],,,Increase,0.69,6 times,Decrease,,,Increase,After 12 hours,"Rate of increase or decrease [7, 12]: 1.50"
C[C@H](N)C(=O)O [Alanine],Different from individual,1.34,Increase,,6 times,Different from individual,0.64,1.41,,,"Rate of increase or decrease ([3]; 6 times of freezing and thawing, relative to 1 at 2 times, different from individual to individual, second value (decrease)): 0.63"
Nc1ccccc1C(=O)CC(N)C(=O)O (centres unmarked) [Kynurenine],Different from individual,,,,4 times,Decrease,0.66,1.85,,,"Rate of increase or decrease ([2]; freezing and thawing 6 times): 1.37; Increase or decrease [2, 13]: Increase; Rate of increase or decrease [3, 11]: 0.67"
CN=C(NC)NCCC[C@H](N)C(=O)O [Symmetric dimethylarginine],Different from individual,1.31,Increase,0.55,6 times,Decrease,0.68,1.78,,,
NC(=O)C[C@H](N)C(=O)O [Asparagine],,1.38,Increase,0.66,6 times,Decrease,,,Increase,After 12 hours,"Rate of increase or decrease [7, 12]: 1.40"
C[N+](C)(C)CC(O)CC(=O)[O-] (centres unmarked) [Carnitine],Different from individual,,,0.67,6 times,Decrease,0.64,1.57,,,"Rate of increase or decrease ([2]; freezing and thawing 6 times): 1.30; Increase or decrease [2, 13]: Increase"
